{"source": "patent US11746343B2", "about": "“Wheat plants having increased resistance to imidazolinone herbicides” (Northwest Plant Breeding Company, priority 2001, dated 2023)", "key": {"[1]": {"system": "AHAS enzyme extracted from herbicide tolerant AP602CL plants", "assay": "in vitro AHAS enzyme activity, enzyme extracted from AP602CL plants", "format": "biochemical, Triticum aestivum", "source_text": "(§1) Both the AP205CL and AP602CL wheat plants are tolerant to imidazolinone herbicides due to a mutation of the AHAS enzyme that is resistant to inhibition by these herbicides in vitro. […] The values in FIG. 1 are expressed as a percent of uninhibited activity. […] This activity continues to decline to nearly 100 percent inhibition of the enzyme at higher herbicide concentrations ([…]). In contrast, the AHAS enzyme extracted from herbicide tolerant AP205CL plants retains nearly 90 percent of its activity at the […] imazamox concentration, and approximately one third of its activity at the higher (50 µM to 100 µM) concentrations. The AHAS enzyme extracted from herbicide tolerant AP602CL plants retains nearly 80-100 percent of its activity at the […] imazamox concentration, and nearly half of its activity at the higher ([…]) concentrations. These levels of activity are sufficient to allow the tolerant wheat plants to survive the application of imazamox, as was observed during the selection process (Example 1).\n(§2) AHAS is known to be feedback inhibited by the branched chain amino acids. Valine and leucine in combination are especially effective inhibitors."}, "[2]": {"system": "AHAS enzyme extracted from herbicide tolerant AP205CL plants", "assay": "in vitro AHAS enzyme activity, enzyme extracted from AP205CL plants", "format": "biochemical, Triticum aestivum", "source_text": "as §1, §2"}, "Madsen1 wheat line": {"system": "Madsen1 wheat line", "assay": "selection of tolerant Madsen line (M2 field, M3 greenhouse)", "format": "in vivo, Triticum aestivum", "protocol": "Seeds of the soft white winter wheat variety Madsen, were pre-soaked in tap water. After decanting the tap water, a solution of 0.03% EMS and 0.02% DES was poured into the seed container. The container was shaken every 10-15 minutes during the course of a two-hour treatment. The EMS and DES solution was decanted and a solution of 0.02% sodium azide in 0.001 M phosphate buffer was added. The container again was shaken every 10-15 minutes during the course of a two-hour treatment. Seeds were then rinsed in tap water and dried. After drying, seeds were planted. Planted seeds represented the M1 generation. M1 plants were allowed to self-pollinate and the M2 seed harvested as a bulk. Approximately 0.2 hectares of M2 seed were planted in the field and resultant plants treated with an imazamox rate of 40 g. ai/ha. Twelve M2 plants were identified as tolerant. These plants were dug, and sent to Pullman, Wash. for vernalization and M3 seed production. M3 seed from each of the M2 plants were planted in the greenhouse and resultant plants were vernalized for 8 weeks, then treated with 80 g. ai/ha of Imazamox. Plants were selected based upon observed levels of tolerance and repotted for seed production. The M2:3 line designated Madsen1 selected as tolerant to 40 g/ha imazamox as an M2 was confirmed as tolerant to imazamox at the 80 g/ha rate applied to M3 progeny."}, "[3]": {"system": "HRS 198205 (AP205CL) wheat plants", "assay": "field plots and seed increases sprayed with imazamox, HRS 198205 / AP205CL", "format": "in vivo, Triticum aestivum", "protocol": "(§3) Progeny seed of HRS 198205 and HRS198208 were collected and planted in the field. Field plots were sprayed with imazamox herbicide at 80 g. a.i./ha.+1.0% Sun-It adjuvant (v/v). […] Additionally, seed harvested from plots of five of the HRS198208 sub-lines were combined into a single lot that was designated AP602CL (referred to above as Gunner IMI 208). Seed increases were conducted at several locations. All seed increases were sprayed with imazamox herbicide at 40 g. a.i./ha+0.25% (v/v) non-ionic surfactant."}, "Madsen1 wheat plants": {"system": "Madsen1 wheat plants", "assay": "greenhouse trial of tolerance of Madsen1 to imazamox", "format": "in vivo, Triticum aestivum", "conditions": "40 and 80 g/ha, 14 days after treatment, control Teal", "protocol": "Madsen1 was evaluated for tolerance to the imidazolinone herbicide imazamox at 40 and 80 g/ha in a greenhouse trial. The susceptible wheat cultivar Teal was used as a control. Evaluation was made 14 days after treatment. Injury was scored on a 0-9 scale, 0 representing no injury and 9 representing plant death."}, "[4]": {"system": "AHAS enzyme from wild type Gunner wheat", "assay": "in vitro AHAS enzyme activity, enzyme extracted from wild type wheat", "format": "biochemical, Triticum aestivum", "set-up": "unit of the concentration uncertain", "source_text": "as §1, §2"}, "[5]": {"system": "HRS198208 (AP602CL) wheat plants", "assay": "field plots and seed increases sprayed with imazamox, HRS198208 / AP602CL", "format": "in vivo, Triticum aestivum", "protocol": "as §3"}, "[6]": {"system": "AHAS extracted from Madsen1", "assay": "in vitro AHAS activity, Madsen1 compared to wild type Madsen", "format": "biochemical, Triticum aestivum", "source_text": "Because the tolerance in Madsen1 is due to a mutation in the AHAS enzyme rendering it resistant to inhibition by imidazolinone herbicides, the in vitro activity of AHAS extracted from wild type plants (not having the mutation for tolerance) can be compared to the in vitro activity of AHAS extracted from tolerant plants in the presence of varying concentrations of an imidazolinone (IMI) herbicide. Madsen1 was compared to the wild type variety Madsen."}}, "data": [{"smiles": "COCc1cnc(C2=NC(C)(C(C)C)C(=O)N2)c(C(=O)O)c1", "note": "(stereo not drawn) [imazamox]", "values": [{"measurement": "AHAS activity retained", "setting": "[1]; 1 M imazamox", "result": "80-100%"}, {"measurement": "AHAS activity retained (fraction of its activity)", "setting": "[1]; higher (50 µM to 100 µM) imazamox concentrations", "result": "half"}, {"measurement": "AHAS activity retained", "setting": "[2]; 1 M imazamox", "result": "~90", "unit": "%"}, {"measurement": "AHAS activity retained (fraction of its activity)", "setting": "[2]; higher (50 M to 100 µM) imazamox concentrations", "result": "approximately one third"}, {"measurement": "tolerance of M2 plants", "setting": "Madsen1 wheat line; 40 g/ha imazamox, field, M2", "result": "tolerant"}, {"measurement": "tolerance of M3 progeny", "setting": "Madsen1 wheat line; 80 g/ha imazamox, greenhouse, M3 progeny", "result": "tolerant"}, {"measurement": "herbicide susceptible plants in seed increases", "setting": "[3]; 40 g. a.i./ha + 0.25% (v/v) non-ionic surfactant, AP205CL", "result": "No herbicide susceptible plants were observed"}, {"measurement": "tolerance in field plots", "setting": "[3]; 80 g. a.i./ha + 1.0% Sun-It adjuvant (v/v), HRS 198205", "result": "same level of acceptable tolerance"}, {"measurement": "tolerance (injury scored on a 0-9 scale)", "setting": "Madsen1 wheat plants", "result": "has tolerance"}, {"measurement": "inhibition of the AHAS enzyme", "setting": "[4]; higher herbicide concentrations (100 (unit uncertain))", "result": "~100", "unit": "%"}, {"measurement": "reduction of AHAS activity", "setting": "[4]; low concentration (1 (unit uncertain)) of imazamox", "result": "1 to 35", "unit": "%"}, {"measurement": "herbicide susceptible plants in seed increases", "setting": "[5]; 40 g. a.i./ha + 0.25% (v/v) non-ionic surfactant, AP602CL", "result": "No herbicide susceptible plants were observed"}, {"measurement": "tolerance in field plots", "setting": "[5]; 80 g. a.i./ha + 1.0% Sun-It adjuvant (v/v), HRS198208", "result": "same level of acceptable tolerance"}, {"measurement": "residual uninhibited AHAS", "setting": "[6]; 100 μM imazamox, Madsen1", "result": "sufficient to provide a herbicide tolerant response"}, {"measurement": "uninhibited AHAS enzyme activity as imazamox concentration increased", "setting": "[6]; Madsen1 compared to wild type Madsen", "result": "decreased faster in wild type lines than in Madsen)"}]}]}
